According to the NIST ThermoML archive (doi:10.1021/je501041r):
Numbers after ± are expanded uncertainties.

conditions: 298.15 K; 101 kPa; Liquid; Capillary tube (Ostwald / Ubbelohde) method

Row | viscosity [mPa·s] | SMILES
1 | 0.478 ± 0.006 | CC(C)CC(C)(C)C [2,2,4-trimethylpentane]
2 | 3.458 ± 0.042 | CCCCCO [pentan-1-ol]
3 | 6.004 ± 0.073 | CCCCCCCO [heptan-1-ol]
4 | 4.605 ± 0.056 | CCCCCCO [hexan-1-ol]
5 | 1.955 ± 0.023 | CCCO [propan-1-ol]

same assay, conditions: 298.15 K; 101 kPa; Liquid; Vibrating tube method

Row | mass density [kg/m3] | SMILES
6 | 687.82 ± 2 | CC(C)CC(C)(C)C [2,2,4-trimethylpentane]
7 | 810.59 ± 2 | CCCCCO [pentan-1-ol]
8 | 818.82 ± 2 | CCCCCCCO [heptan-1-ol]
9 | 815.3 ± 2 | CCCCCCO [hexan-1-ol]
10 | 800.03 ± 2 | CCCO [propan-1-ol]

same assay, conditions: 303.15 K; 101 kPa; Liquid; Capillary tube (Ostwald / Ubbelohde) method

Row | viscosity [mPa·s] | SMILES
11 | 0.453 ± 0.005 | CC(C)CC(C)(C)C [2,2,4-trimethylpentane]
12 | 3.007 ± 0.037 | CCCCCO [pentan-1-ol]
13 | 5.079 ± 0.062 | CCCCCCCO [heptan-1-ol]
14 | 3.944 ± 0.048 | CCCCCCO [hexan-1-ol]
15 | 1.737 ± 0.02 | CCCO [propan-1-ol]

same assay, conditions: 303.15 K; 101 kPa; Liquid; Vibrating tube method

Row | mass density [kg/m3] | SMILES
16 | 683.68 ± 2 | CC(C)CC(C)(C)C [2,2,4-trimethylpentane]
17 | 807.89 ± 2 | CCCCCO [pentan-1-ol]
18 | 815.3 ± 2 | CCCCCCCO [heptan-1-ol]
19 | 811.71 ± 2 | CCCCCCO [hexan-1-ol]
20 | 796.01 ± 2 | CCCO [propan-1-ol]

same assay, conditions: 308.15 K; 101 kPa; Liquid; Capillary tube (Ostwald / Ubbelohde) method

Row | viscosity [mPa·s] | SMILES
21 | 0.429 ± 0.005 | CC(C)CC(C)(C)C [2,2,4-trimethylpentane]
22 | 2.625 ± 0.032 | CCCCCO [pentan-1-ol]
23 | 4.374 ± 0.054 | CCCCCCCO [heptan-1-ol]
24 | 3.414 ± 0.042 | CCCCCCO [hexan-1-ol]
25 | 1.548 ± 0.018 | CCCO [propan-1-ol]

same assay, conditions: 308.15 K; 101 kPa; Liquid; Vibrating tube method

Row | mass density [kg/m3] | SMILES
26 | 679.52 ± 2 | CC(C)CC(C)(C)C [2,2,4-trimethylpentane]
27 | 804.16 ± 2 | CCCCCO [pentan-1-ol]
28 | 811.75 ± 2 | CCCCCCCO [heptan-1-ol]
29 | 808.09 ± 2 | CCCCCCO [hexan-1-ol]
30 | 791.92 ± 2 | CCCO [propan-1-ol]

same assay, conditions: 313.15 K; 101 kPa; Liquid; Capillary tube (Ostwald / Ubbelohde) method

Row | viscosity [mPa·s] | SMILES
31 | 0.408 ± 0.005 | CC(C)CC(C)(C)C [2,2,4-trimethylpentane]
32 | 2.317 ± 0.029 | CCCCCO [pentan-1-ol]
33 | 3.8 ± 0.047 | CCCCCCCO [heptan-1-ol]
34 | 2.96 ± 0.036 | CCCCCCO [hexan-1-ol]
35 | 1.384 ± 0.016 | CCCO [propan-1-ol]

same assay, conditions: 313.15 K; 101 kPa; Liquid; Vibrating tube method

Row | mass density [kg/m3] | SMILES
36 | 675.32 ± 2 | CC(C)CC(C)(C)C [2,2,4-trimethylpentane]
37 | 800.4 ± 2 | CCCCCO [pentan-1-ol]
38 | 808.17 ± 2 | CCCCCCCO [heptan-1-ol]
39 | 804.43 ± 2 | CCCCCCO [hexan-1-ol]
40 | 787.79 ± 2 | CCCO [propan-1-ol]

same assay, conditions: 318.15 K; 101 kPa; Liquid; Capillary tube (Ostwald / Ubbelohde) method

Row | viscosity [mPa·s] | SMILES
41 | 0.388 ± 0.005 | CC(C)CC(C)(C)C [2,2,4-trimethylpentane]
42 | 2.029 ± 0.025 | CCCCCO [pentan-1-ol]
43 | 3.224 ± 0.04 | CCCCCCCO [heptan-1-ol]
44 | 2.581 ± 0.032 | CCCCCCO [hexan-1-ol]
45 | 1.241 ± 0.015 | CCCO [propan-1-ol]

same assay, conditions: 318.15 K; 101 kPa; Liquid; Vibrating tube method

Row | mass density [kg/m3] | SMILES
46 | 671.1 ± 2 | CC(C)CC(C)(C)C [2,2,4-trimethylpentane]
47 | 796.59 ± 2 | CCCCCO [pentan-1-ol]
48 | 804.57 ± 2 | CCCCCCCO [heptan-1-ol]
49 | 800.75 ± 2 | CCCCCCO [hexan-1-ol]
50 | 783.65 ± 2 | CCCO [propan-1-ol]

same assay, conditions: 323.15 K; 101 kPa; Liquid; Capillary tube (Ostwald / Ubbelohde) method

Row | viscosity [mPa·s] | SMILES
51 | 0.369 ± 0.005 | CC(C)CC(C)(C)C [2,2,4-trimethylpentane]
52 | 1.795 ± 0.022 | CCCCCO [pentan-1-ol]
53 | 2.851 ± 0.035 | CCCCCCCO [heptan-1-ol]
54 | 2.251 ± 0.028 | CCCCCCO [hexan-1-ol]
